The text below walks through data of paper PMC12518634, “The noncanonical function of liver-type phosphofructokinase potentiates the efficacy of HDAC inhibitors in cancer” (Signal Transduction and Targeted Therapy, 2025).

Where no end group is shown, it is not given here.

The subject of data set [1] is HuCCT1 cells. Nature of the data set: Confocal imaging of peptide infiltration into cells. In kind it is in vitro ADME, human. The following applies: confocal images, Supplementary Fig. 13b. The source says: (§1) Supplementary Fig. 13. […] Scale bars, 100 μm. i Body weight of each group of HuCCT1 xenografts at the end of treatment is plotted (n = 6 mice per group, two-way ANOVA). j The tumor weight of each group of HuCCT1 xenografts at the end of treatment is plotted (n = 6 mice per group, Student’s t test).

Data set [2] relates to HuCCT1 cells. Nature of the data set: CCK-8 cytotoxicity of the peptides. As to conditions: CCK-8 assay, n=3 biological replicates, Supplementary Fig. 13c. Format: cell-based, human. How it is done: The cell proliferation rates were determined with a CCK-8 Cell Counting Kit (Vazyme, A311) in strict accordance with the provided protocol. The colony formation capacity was assessed by plating the cells in 6-well plates (5000 cells/well), followed by drug treatment over a 7-day period. Finally, the resulting colonies were subjected to crystal violet staining for subsequent quantification.
as §1
Background: Tetrazolium dyes change colour on reduction, which living cells bring about.

The next data set has as its system 783C-6. Nature of the data set: High-throughput drug screen, CellTiter-Glo viability, 72 h. In kind it is cell-based, human. Also noted: AUC: scale not given here. As to conditions: 783C-6 cells. The procedure, abridged: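 Cholangiocarcinoma cells were seeded at 3000/well in 384-well plates and dosed after 24 h. Drugs were tested at 10, 1, 0.1, 0.01 and 0.001 μM in duplicate for 72 h, with viability read by CellTiter-Glo luminescence.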
Background: In ATP-based viability assays light output follows the ATP content of the culture.

The next data set has as its system 1405R3. The description is as above. Format: cell-based, human. Also noted: AUC: scale not given here. The following applies: 1405R3 DSRT analysis. The procedure, abridged: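 Responses are drug sensitivity scores (efficacy cutoff ≥10), fitted from CellTiter-Glo luminescence. Each drug was given at five concentrations (10 to 0.001 μM, tenfold steps) in duplicate for 72 h. Cells were plated at 3000/well 24 h before dosing.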

Another data set relates to TFK1 cells. Put plainly: Cell viability assay (CellTiter-Glo, 72 h), GI50. The following applies: TFK1 sgPFKL-1 and sgPFKL-2 versus sgNC, Supplementary Fig. 2d. Format: cell-based, human. Here is the method: Cell viability was assessed using the CellTiter-Glo luminescent cell viability assay (Vazyme, DD1101) following the manufacturer’s instructions. Briefly, 5000 cells per well were seeded into a 96-well white bottom permeable plate. Different concentrations of drugs were added to each well. After 72 h of treatment, a mixture of CellTier reagent and serum-free culture medium was prepared at a 1:1 ratio, and 100 μL of the mixture was added to each well. After incubation at 37 °C for 15 min, the luminescence was measured using a microplate reader (Synergy H1, Biotek). All the experiments were conducted in triplicate. Cell viability (relative luminescence) was defined as the luminescence of the drug treatment relative to that of the vehicle control.

Where [3] appears, read: area under the dose-response curve.

For the compound “CDRIKQSASGTKRRVFIVETMRRRRRRRR [PFKL-552-572-R8]”, the cellular permeability entry with HuCCT1 cells [1] is recorded as “good cellular permeability”. For the same compound, the cytotoxicity result in the data set with HuCCT1 cells [2] is “low cytotoxicity”.
For the compound CDRIKQSASGKRRVFIVETMRRRRRRRR [∆562-R8], in the data set with HuCCT1 cells [1], the cellular permeability result is “good cellular permeability”. For the same compound, the cytotoxicity entry with HuCCT1 cells [2] was “low cytotoxicity”.
Turning to `O=C(CCCCCCC(=O)Nc1ccccc1)NO` [vorinostat, reference compound], the DSS in the data set with 783C-6 (DSS of DSRT analysis) is 11.5; in the data set with 1405R3 (drug sensitivity score) it was 10. For the same compound, the AUC with 783C-6 (setting [3]) turned out to be 104.1; in the data set on 1405R3 (setting [3]), 87. The MIN in the data set on 783C-6 (minimum of dose-response curve) came to 3.6; in the data set with 1405R3 (lower asymptote of fitted dose-response curve), 6.1. Moreover, the “effect of PFKL knockout on drug efficacy (cell viability)” value in the data set with TFK1 cells is on record as “significantly inhibited drug efficacy”.
